Experimental data: patent EP4474386A1, “ANTHRACYCLINES” (priority 2023, dated 2024)
“Also recorded” adds a separate entry of the source.

Assays:
MelJuSo-PAGFP-H2A cells = assay: Assay 4: Microscopy analysis, PAGFP-H2A photoactivation and time-lapse confocal imaging (histone eviction); type: cell-based, human; details: 10 µM, 1 hour time-lapse; FIG. 4A
Method: For PAGFP-H2A photoactivation and time-lapse confocal imaging, cells were seeded in a 35mm glass bottom petri dish (Poly-dlysine-Coated, MatTek Corporation), and imaged 16 hours later as described in Pang, B., Qiao, X., Janssen, L. et al. Nat Commun 4, 2013, 1908 for one hour following addition of 10µM of the indicated drugs. Time-lapse confocal imaging was performed on a Leica SP8 confocal microscope system 63x lens, equipped with a climate chamber. Movies were quantified using imaged software.
Assay 4. This assay visualised histone eviction and subsequently, the chromatin damage induced by the compounds embodying the present invention could be assessed. The method followed is described in the assay for microscopy analysis described herein.

[1] = system: DNA double-strand breaks in K562 cells; assay: Assay 2: Constant-field gel electrophoresis (CFGE), DNA double-strand breaks; type: cell-based, human; details: 10 µM, 2 hours, FIGS. 3C & 3D
Method: Cells were seeded into 12-well format (e.g. 250.000 cells/well for K562, or Mjs), treated with indicated drugs at 10 µM for 2 hours. Subsequently, drugs were removed by extensive washing and cells were collected and processed immediately for the assays. DNA double strand breaks were quantified by constant-field gel electrophoresis as described in Wlodek D., Banáth J., & Olive P. L., International Journal of Radiation Biology, 1991, 60:5, 779-790. Images were quantified using imaged software.
Assay 2. Because anthracycline drugs can also evict histones, including H2AX, the levels of phosphorylated H2AX might be affected. To determine DNA double-strand break induction by the compounds embodying the present invention at the DNA level, we assessed the DNA damage capacity of all the compounds by using constant field gel electrophoresis (CFGE), as described below, a more direct method to detect DNA breaks. The results are set out in FIGS. 3C & 3D.

[2] = system: γH2AX levels in K562 cells; assay: Assay 3: Western blot of γH2AX levels (DNA damage); type: cell-based, human; details: 10 µM, 2 h, FIGS. 3A & 3B
Method: Cells were seeded into 12-well format (e.g. 250.000 cells/well for K562, or Mjs), treated with indicated drugs at 10 µM for 2 hours. Subsequently, drugs were removed by extensive washing and cells were collected and processed immediately for the assays. Cells were lysed directly in SDS-sample buffer (2%SDS, 10% glycerol, 5% β-mercaptoethanol, 60mM Tris-HCl pH 6.8 and 0.01% bromophenol blue). Samples were separated by SDS-PAGE and transferred to a PVDF membrane (Immobilon-P, 0.45µm, Millipore). Blocking of the filters and antibody incubations were done in PBS supplemented with 0.1 (v/v)% Tween and 5% (w/v) milk powder (Skim milk powder, LP0031, Oxiod). Blots were imaged by the Odyssey Classic imager (Li-Cor). Intensity of bands was quantified using imaged or Image Studio software. For CFGE: DNA double strand breaks were quantified by constant-field gel electrophoresis as described in Wlodek D., Banáth J., & Olive P. L., International Journal of Radiation Biology, 1991, 60:5, 779-790. Images were quantified using imaged software.
Primary antibodies used for Western blotting: γH2AX (1:1000, 05-036, Millipore), β-actin (1:10000, A5441, Sigma). […]
Assay 3. […] This was determined by assessing γH2AX levels (see Kuo, L. J., Yang, L. X. In Vivo. April 2008, pp 305-310) using the assay for Western blot analysis described herein. […]

[3] = system: human myelogenous leukemic cell line K562; assay: Assay 1: Short-term growth inhibition viability assay (CellTiter-Blue); type: cell-based; details: K562 cells
Method: Cells were seeded into 96-well format (e.g. 2000 cells/well for K562, Mjs, or U2O cells). 24 hours after seeding, cells were treated with indicated compounds for 2 hours at various concentrations. Subsequently, compounds were removed, and cells were left to grow for an additional 72 hours. Cell viability was measured using the CellTiter-Blue viability assay (Promega). Relative survival was normalized to the untreated control and corrected for background signal.
K562 cells (B. Pang, Leiden University Medical Center, the Netherlands) were maintained in RPMI-1640 medium supplemented with 8% FCS. MelJuSo cells were maintained in IMDM supplemented with 8% FCS. MelJuSo cells stably expressing PAGFP-H2A were maintained in IMDM supplemented with 8% FCS and G-418, as described in Pang, B., Qiao, X., Janssen, L. et al. Nat Commun 4, 1908 (2013). U2Os cells (ATCC® HTB-96) were maintained in DMEM medium supplemented with 8% FCS. Cell lines were maintained in a humidified atmosphere of 5% CO2 at 37°C, regularly tested for the absence of mycoplasma and the origin of cell lines was validated using STR analysis.
Assay 1. Anthracyclines are often used in the treatment of acute myeloid leukaemia and other haematological malignancies. Therefore, the compounds shown in FIG. 1 were assayed for their activity versus human myelogenous leukemic cell line K562 in order to determine their cytotoxicity in vitro, using the assay for short-term growth inhibition viability described herein. […] IC50 is expressed in µM and represents the concentration of compound required to inhibit cell proliferation by 50%.

Structure (SMILES)	chromatin damage / rate of histone eviction (in words) (MelJuSo-PAGFP-H2A cells)	DNA double-strand break induction (CFGE) [1]	DNA damage (γH2AX levels) [2]	cytotoxicity (in words, compared with reference anthracyclines) ([3]; FIG. 2A)	IC50 ([3]; 2 hours treatment, then 72 hours growth) [nM]	times more cytotoxic than doxorubicin (1) ([3]; relative to doxorubicin (1)) [times]
CC(=O)[C@]1(O)Cc2c(O)c3c(c(O)c2[C@@H](O[C@H]2C[C@H](N(C)C)[C@H](O)[C@H](C)O2)C1)C(=O)c1ccccc1C3=O [Compound 18, N,N-dimethylidarubicin]	superior chromatin damage activity relative to doxorubicin (1); also recorded: improved or comparable toxicity and rate of histone eviction relative to doxorubicin (1) and idarubicin (17)	do not induce DNA; also recorded: does not induce any DNA double-strand breaks	did not induce DNA damage	–	–	–
CC(=O)[C@]1(O)Cc2c(O)c3c(c(O)c2[C@@H](O[C@H]2C[C@H](N(C)C)[C@H](O[C@H]4C[C@H](O)[C@H](O[C@H]5CCC(=O)[C@H](C)O5)[C@H](C)O4)[C@H](C)O2)C1)C(=O)c1ccccc1C3=O [Compound 26, 7-[2,3-Dideoxy-4-ulo-α-L-fucopyranosyl-2-deoxy-α-L-fucopyranosyl-(1→4)- -2,3-dideoxy-3-dimethylamino-α-L-fucopyranoside]-idarubicinone]	superior chromatin damage activity relative to doxorubicin (1); also recorded: fastest histone eviction activity; also recorded: more efficient in terms of histone eviction	do not induce DNA; also recorded: not inducing any DNA double-strand breaks	did not induce DNA damage	considerably more cytotoxic than doxorubicin (1); also recorded: most effective compound tested; also recorded: more toxic than doxorubicin (1), aclarubicin (2) and idarubicin (17)	20	16
